The source made the active and inactive calls.
Tests used:
[1] = P. falciparum late gametocyte killing, dose response, luminescence (AID 1117278); format: functional, cell-based;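 note: gametocytes exposed to compound for 24 hours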
[2] = Jurkat T cell cytotoxicity, dose response, cytotoxicity control for P. falciparum gametocyte viability project, luminescence (AID 1117277); format: functional, cell-based;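 note: potency reflects loss of cellular ATP meaning fewer viable cells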
[3] = biological target: T1, Sentrin-specific protease 8 (Homo sapiens, UniProt Q96LD8); format: functional
T1 sequence (Q96LD8 whole entry): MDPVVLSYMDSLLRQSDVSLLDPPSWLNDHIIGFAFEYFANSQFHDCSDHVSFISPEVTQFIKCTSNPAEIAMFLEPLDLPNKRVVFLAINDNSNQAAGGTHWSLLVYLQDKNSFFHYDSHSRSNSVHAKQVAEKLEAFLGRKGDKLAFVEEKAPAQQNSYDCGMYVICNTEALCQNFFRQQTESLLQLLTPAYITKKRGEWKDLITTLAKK

Prothrombin = Prothrombin (Homo sapiens, UniProt P00734); experiment: Thrombin 1536 HTS Dose Response Confirmation. [Related pubchem assays: 1046 (Thrombin 1536 HTS; hits were confirmed in this assay)]; format: functional
Caspase-6 = biological target: T2, Caspase-6 (Homo sapiens, UniProt P55212); experiment: human caspase-6 inhibitors, dose response, biochemical, VEID-R110 fluorescence, cherry-pick (AID 720632)
T2 sequence (P55212 whole entry): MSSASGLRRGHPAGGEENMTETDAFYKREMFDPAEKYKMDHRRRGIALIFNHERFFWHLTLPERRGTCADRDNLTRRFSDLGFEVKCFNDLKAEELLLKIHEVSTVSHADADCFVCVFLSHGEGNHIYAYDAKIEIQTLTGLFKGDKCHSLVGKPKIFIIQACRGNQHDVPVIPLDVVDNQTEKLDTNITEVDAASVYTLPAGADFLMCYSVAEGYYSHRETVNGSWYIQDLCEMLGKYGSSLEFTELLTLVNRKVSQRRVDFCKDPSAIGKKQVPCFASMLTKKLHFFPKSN

[4] = cytotoxicity in KRAS-transformed pancreatic duct cells, primary screen, cell-based, fluorescence, HTS (AID 431); format: functional; settings: Homo sapiens;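 note: cell line used: HPDE-C7K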
[5] = cytotoxicity in HPDE-C7 cells, cell-based, fluorescence, HTS (AID 430); format: functional; settings: Homo sapiens
[6] = HEK293 cell cytotoxicity, dose response, cytotoxicity control, plate reader, cherry-picked samples (AID 743446); format: functional, cell-based
[7] = biological target: T1, Sentrin-specific protease 8; format: functional; remark: listed apart in the source
[8] = A549 cell cytotoxicity, dose response, cytotoxicity control, plate reader, cherry-pick, antagonist series (AID 743412); format: functional, cell-based
INS1 = experiment: beta cell apoptosis inhibitors, cytokine rescue, dose response, luminescence, retest (AID 449756); format: functional, cell-based; settings: Rattus norvegicus;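 note: cell death triggered by IL-1 beta plus TNF-alpha plus IFN-gamma mixture; protective hits raise ATP signal compared with cytokine alone wells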
[9] = biological target: T3, Apoptotic protease-activating factor 1 (Homo sapiens, UniProt O14727); format: functional
T3 sequence (O14727 whole entry): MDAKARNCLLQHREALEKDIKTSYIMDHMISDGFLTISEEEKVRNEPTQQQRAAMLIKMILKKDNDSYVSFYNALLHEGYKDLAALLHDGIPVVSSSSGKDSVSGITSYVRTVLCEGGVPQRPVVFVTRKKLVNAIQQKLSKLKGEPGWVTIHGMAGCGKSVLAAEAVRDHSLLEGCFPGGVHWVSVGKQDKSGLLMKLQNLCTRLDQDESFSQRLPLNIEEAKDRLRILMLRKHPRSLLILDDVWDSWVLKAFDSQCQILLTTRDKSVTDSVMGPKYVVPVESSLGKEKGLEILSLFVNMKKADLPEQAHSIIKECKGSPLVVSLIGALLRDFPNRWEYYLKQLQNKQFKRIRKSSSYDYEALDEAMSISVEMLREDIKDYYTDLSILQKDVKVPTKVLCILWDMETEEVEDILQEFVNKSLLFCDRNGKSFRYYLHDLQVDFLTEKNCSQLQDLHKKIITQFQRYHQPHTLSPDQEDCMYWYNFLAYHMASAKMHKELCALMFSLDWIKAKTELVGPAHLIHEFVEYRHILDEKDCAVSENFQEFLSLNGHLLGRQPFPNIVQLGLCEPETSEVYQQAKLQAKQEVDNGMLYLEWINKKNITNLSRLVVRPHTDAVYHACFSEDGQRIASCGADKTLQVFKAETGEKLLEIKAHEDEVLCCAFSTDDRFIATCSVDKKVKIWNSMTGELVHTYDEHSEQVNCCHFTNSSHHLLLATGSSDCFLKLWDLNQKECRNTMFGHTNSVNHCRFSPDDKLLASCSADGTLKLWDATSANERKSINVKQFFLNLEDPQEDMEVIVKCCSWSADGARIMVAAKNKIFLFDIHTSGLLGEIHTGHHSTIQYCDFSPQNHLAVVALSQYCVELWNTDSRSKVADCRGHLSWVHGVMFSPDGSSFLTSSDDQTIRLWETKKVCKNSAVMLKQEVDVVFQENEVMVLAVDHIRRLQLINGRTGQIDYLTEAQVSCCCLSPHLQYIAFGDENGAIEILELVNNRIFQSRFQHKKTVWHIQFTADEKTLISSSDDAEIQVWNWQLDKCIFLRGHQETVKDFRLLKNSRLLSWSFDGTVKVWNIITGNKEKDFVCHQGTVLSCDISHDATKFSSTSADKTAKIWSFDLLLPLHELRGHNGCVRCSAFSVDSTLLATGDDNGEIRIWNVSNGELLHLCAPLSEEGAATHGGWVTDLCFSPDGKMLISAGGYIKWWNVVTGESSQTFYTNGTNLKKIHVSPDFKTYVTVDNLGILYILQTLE

[10] = HepG2 cell cytotoxicity, dose response, cytotoxicity control, plate reader, cherry-pick, antagonist series (AID 743416); format: functional, cell-based
Paired box protein Pax-8 = Paired box protein Pax-8 (Homo sapiens, UniProt Q06710); experiment: inhibitors of PAX8-driven TPO luciferase reporter, dose response, RMG-I cells, cherry-pick (AID 687027); format: functional, cell-based;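 note: luciferase reporter driven by Pax8 target thyroperoxidase promoter measured by SteadyGlo luminescence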
Paired box protein Pax-8, sequence (Q06710 whole entry): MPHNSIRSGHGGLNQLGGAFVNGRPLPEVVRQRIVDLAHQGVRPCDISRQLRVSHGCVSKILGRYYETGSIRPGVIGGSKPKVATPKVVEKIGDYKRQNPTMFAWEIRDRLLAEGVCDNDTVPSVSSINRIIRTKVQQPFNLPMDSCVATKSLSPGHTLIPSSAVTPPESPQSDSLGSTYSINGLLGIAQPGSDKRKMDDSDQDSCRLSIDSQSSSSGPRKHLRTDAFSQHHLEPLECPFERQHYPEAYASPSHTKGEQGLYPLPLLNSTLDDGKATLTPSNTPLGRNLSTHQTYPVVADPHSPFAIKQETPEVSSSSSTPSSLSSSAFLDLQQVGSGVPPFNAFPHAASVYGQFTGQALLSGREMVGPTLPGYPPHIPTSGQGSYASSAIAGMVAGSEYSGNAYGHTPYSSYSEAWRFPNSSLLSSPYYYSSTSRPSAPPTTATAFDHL

[11] = NIH:OVCAR-3 ovarian cancer cell cytotoxicity, dose response, PAX8 inhibitor project, plate reader, dry powder samples (AID 743044); format: functional, cell-based
[12] = cytotoxicity in OVCAR8 ovarian cancer cells, dose response, PAX8 project, cell-based, plate reader, dry powder samples (AID 743197); format: functional; settings: OVCAR-8
Leucine aminopeptidase = biological target: T4, Leucine aminopeptidase (Plasmodium falciparum 3D7, UniProt Q8IL11); experiment: P. falciparum M17LAP inhibitors, primary screen, biochemical, fluorogenic H-Leu-NHMec substrate, 1536-well (AID 1619); format: functional
T4 sequence (Q8IL11 whole entry): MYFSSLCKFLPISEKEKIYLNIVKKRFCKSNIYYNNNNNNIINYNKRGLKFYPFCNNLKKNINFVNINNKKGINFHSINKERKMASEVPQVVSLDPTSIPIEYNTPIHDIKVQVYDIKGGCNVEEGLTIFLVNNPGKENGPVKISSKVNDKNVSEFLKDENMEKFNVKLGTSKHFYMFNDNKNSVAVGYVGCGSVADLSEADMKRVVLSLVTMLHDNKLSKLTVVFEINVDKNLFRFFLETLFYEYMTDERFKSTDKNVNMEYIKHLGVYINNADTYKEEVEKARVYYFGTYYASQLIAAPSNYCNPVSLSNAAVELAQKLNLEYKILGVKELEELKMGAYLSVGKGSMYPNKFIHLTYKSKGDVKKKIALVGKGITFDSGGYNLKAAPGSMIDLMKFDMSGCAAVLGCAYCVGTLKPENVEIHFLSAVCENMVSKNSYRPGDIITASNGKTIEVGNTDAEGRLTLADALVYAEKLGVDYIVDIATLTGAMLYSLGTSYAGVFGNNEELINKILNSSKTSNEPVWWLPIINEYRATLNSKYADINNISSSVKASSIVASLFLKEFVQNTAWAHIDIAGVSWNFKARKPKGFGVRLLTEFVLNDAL

[13] = biological target: T5, COUP transcription factor 2 (Homo sapiens, UniProt P24468); experiment: Luminescence-based cell-based high throughput dose response assay to identify inhibitors of COUP-TFII (NR2F2).; format: functional;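 note: HEK293 cells transiently cotransfected with COUP-TFII expression vector and reporter; luciferase reporter luminescence driven by COUP-TFII from the pX2-168 reporter plasmid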
T5 sequence (P24468 whole entry): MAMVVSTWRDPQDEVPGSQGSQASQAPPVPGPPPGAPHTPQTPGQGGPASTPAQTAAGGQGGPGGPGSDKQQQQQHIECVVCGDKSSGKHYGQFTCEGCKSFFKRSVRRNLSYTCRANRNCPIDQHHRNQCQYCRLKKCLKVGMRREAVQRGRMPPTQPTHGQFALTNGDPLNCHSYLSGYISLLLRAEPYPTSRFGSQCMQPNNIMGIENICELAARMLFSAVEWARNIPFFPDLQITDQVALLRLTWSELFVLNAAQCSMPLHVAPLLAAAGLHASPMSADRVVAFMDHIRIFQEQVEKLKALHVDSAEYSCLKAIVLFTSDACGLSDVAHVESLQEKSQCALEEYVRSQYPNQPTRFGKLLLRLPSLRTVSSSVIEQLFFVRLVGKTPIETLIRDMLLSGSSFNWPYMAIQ

Fatty acid synthase [14] = biological target: T6, Fatty acid synthase (Homo sapiens, UniProt P49327); experiment: FAS thioesterase domain inhibitors, dose response, biochemical, kinetic fluorescence intensity (AID 624326); format: functional;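 note: rate of fluorescence rise from hydrolysis of a fluorogenic O-methyl fluorescein ester substrate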
T6 sequence (P49327 whole entry, the tested form may be a part): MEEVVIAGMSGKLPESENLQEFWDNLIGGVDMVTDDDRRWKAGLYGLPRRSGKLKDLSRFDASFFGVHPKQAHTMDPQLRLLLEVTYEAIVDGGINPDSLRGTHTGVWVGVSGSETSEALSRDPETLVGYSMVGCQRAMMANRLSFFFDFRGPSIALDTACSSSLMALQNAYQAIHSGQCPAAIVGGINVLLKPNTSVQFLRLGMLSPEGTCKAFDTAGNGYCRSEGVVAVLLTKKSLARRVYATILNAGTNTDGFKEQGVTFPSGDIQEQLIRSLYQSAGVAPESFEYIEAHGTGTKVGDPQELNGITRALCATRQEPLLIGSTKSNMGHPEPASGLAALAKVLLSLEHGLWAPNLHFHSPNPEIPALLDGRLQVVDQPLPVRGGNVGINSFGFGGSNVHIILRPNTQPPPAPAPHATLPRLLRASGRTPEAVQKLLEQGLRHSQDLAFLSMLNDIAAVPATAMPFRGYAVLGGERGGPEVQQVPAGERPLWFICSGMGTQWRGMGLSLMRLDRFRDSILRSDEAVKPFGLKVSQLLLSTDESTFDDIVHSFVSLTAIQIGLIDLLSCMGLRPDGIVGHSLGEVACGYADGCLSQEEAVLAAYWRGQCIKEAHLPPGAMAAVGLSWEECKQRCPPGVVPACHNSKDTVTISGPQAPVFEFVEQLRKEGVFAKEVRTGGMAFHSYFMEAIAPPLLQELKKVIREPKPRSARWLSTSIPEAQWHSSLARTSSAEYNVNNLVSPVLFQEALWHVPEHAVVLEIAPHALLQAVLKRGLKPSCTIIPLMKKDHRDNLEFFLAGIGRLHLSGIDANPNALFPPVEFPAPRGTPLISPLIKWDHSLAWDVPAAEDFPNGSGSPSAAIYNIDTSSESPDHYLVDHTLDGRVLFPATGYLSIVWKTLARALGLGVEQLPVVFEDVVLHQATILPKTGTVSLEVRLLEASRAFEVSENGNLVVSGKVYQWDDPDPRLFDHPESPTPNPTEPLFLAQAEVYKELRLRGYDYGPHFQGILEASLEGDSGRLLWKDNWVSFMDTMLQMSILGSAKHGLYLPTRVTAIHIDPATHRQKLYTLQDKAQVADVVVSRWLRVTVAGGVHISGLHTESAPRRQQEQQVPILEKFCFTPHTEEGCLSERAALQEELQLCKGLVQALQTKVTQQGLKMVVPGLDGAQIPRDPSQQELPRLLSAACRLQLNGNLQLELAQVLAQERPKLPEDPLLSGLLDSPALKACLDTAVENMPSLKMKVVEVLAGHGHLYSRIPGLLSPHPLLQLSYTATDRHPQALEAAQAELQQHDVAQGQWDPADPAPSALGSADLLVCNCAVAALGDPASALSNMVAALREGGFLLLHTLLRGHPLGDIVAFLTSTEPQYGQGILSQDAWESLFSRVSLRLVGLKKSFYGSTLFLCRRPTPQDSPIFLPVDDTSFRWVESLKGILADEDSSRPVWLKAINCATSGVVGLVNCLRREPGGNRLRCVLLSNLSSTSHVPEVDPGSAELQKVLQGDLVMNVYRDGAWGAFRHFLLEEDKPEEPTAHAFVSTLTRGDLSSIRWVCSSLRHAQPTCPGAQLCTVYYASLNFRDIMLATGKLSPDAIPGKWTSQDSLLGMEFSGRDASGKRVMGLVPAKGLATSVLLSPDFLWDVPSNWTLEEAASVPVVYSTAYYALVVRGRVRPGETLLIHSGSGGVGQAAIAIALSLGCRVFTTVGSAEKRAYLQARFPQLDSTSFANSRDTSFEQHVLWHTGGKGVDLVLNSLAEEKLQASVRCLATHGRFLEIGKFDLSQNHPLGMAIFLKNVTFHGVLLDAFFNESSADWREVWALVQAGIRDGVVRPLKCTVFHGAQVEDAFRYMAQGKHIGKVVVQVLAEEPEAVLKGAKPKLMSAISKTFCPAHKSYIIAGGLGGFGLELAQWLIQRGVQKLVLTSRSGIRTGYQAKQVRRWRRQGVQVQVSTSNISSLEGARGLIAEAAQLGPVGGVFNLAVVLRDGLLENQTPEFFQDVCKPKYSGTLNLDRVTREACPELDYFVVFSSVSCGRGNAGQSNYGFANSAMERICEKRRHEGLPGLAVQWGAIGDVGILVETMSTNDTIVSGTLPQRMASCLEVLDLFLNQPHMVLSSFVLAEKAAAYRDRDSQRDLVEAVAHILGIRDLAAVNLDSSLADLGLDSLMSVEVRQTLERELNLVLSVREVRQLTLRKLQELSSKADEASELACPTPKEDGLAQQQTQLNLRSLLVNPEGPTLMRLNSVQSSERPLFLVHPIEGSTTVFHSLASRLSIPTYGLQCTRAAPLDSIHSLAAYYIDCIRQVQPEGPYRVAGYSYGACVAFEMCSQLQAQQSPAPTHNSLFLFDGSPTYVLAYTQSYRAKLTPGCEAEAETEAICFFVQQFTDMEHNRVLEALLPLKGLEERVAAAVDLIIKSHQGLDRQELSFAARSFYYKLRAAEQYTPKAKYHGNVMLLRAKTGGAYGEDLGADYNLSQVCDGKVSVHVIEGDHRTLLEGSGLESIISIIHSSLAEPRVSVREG

[15] = biological target: T7, Microphthalmia-associated transcription factor (Homo sapiens, UniProt O75030); experiment: TRPM1 promoter luciferase signal decrease, dose response, MITF inhibitor project, cell-based, SK-MEL-5, cherry-picked, set 3 (AID 493073); format: functional
T7 sequence (O75030 whole entry): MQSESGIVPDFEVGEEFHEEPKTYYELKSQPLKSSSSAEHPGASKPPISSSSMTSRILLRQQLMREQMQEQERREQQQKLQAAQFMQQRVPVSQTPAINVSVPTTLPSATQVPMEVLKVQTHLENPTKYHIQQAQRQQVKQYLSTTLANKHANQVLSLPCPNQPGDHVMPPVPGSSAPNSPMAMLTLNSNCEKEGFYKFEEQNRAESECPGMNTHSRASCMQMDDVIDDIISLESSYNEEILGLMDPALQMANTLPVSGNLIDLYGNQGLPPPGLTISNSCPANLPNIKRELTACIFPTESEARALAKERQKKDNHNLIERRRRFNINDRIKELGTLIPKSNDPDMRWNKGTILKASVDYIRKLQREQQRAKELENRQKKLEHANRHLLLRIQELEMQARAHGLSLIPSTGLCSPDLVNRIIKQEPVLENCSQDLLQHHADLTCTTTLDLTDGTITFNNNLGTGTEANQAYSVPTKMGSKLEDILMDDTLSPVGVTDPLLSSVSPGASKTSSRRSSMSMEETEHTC

Fatty acid synthase [16] = biological target: T6, Fatty acid synthase; experiment: FAS thioesterase domain inhibitors, dose response, biochemical, endpoint fluorescence intensity, uHTS hits (AID 624327); format: functional;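 note: fluorescence from hydrolysis of an O-methyl fluorescein acyl ester substrate by the enzyme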
HT-1080 = experiment: cytotoxicity in HT1080 fibrosarcoma cells, cell-based, fluorescence readout (AID 620); format: functional; settings: Homo sapiens
[17] = biological target: Luciferin 4-monooxygenase (Photinus pyralis, UniProt P08659); experiment: Counter Screen for Luciferase-based Assay Positives. [Related pubchem assays: 620, 618, 411 ]
Luciferin 4-monooxygenase, sequence (P08659 whole entry): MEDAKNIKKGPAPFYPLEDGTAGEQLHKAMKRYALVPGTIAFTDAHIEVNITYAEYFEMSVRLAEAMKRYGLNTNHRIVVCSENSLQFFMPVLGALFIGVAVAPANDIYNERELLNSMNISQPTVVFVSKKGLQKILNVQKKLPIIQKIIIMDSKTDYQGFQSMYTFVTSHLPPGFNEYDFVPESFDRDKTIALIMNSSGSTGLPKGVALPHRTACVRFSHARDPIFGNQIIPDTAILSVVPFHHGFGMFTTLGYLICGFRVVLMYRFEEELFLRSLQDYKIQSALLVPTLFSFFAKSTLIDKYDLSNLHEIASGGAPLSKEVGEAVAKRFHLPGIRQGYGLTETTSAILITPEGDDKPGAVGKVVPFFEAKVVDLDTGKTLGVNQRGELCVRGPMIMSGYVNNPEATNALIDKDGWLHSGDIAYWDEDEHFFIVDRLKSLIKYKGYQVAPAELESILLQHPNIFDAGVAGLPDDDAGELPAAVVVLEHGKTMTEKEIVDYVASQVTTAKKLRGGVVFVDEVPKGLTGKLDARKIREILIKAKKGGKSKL

[18] = P. falciparum ATP4 D1247Y mutant growth inhibitors, dose response, NITD609-resistant line, SYBR Green, dry powder (AID 1159571); format: functional, cell-based;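 note: parasites synchronized at ring stage by sorbitol before testing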
[19] = P. falciparum Dd2 growth inhibitors, dose response, SYBR Green, cherry-picked samples (AID 1159567); format: functional, cell-based
[20] = P. falciparum 3D7-ScDHODH growth inhibitors, dose response, SYBR Green, dry powder samples (AID 1159570); format: functional, cell-based;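 note: parasite growth measured after 72 hours of compound exposure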
[21] = P. falciparum Dd2 growth inhibitors, dose response, SYBR Green, dry powder samples (AID 1159566); format: functional, cell-based;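 note: potency for growth inhibition with lower SYBR green DNA signal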

COc1ccc(NC(=O)CS(=O)(=O)c2ccccc2)cc1
IC50 [1]: > 109 µM (inactive)
IC50 [2]: > 83.2 µM (inactive)

CN(C)c1ccc(NC(=O)c2ccc(Cn3cc([N+](=O)[O-])cn3)cc2)cc1
IC50 [3]: 23.2 µM (active)
IC50 (Prothrombin): > 50 µM (not active)

CC(=O)N1CCc2cc(Br)cc(S(=O)(=O)N3CCC(C(=O)O)CC3)c21
AC50 (Caspase-6): 30.4 µM (active)

CCOc1cc(N2CCOCC2)c(OCC)cc1NS(=O)(=O)c1cc(NC(C)=O)ccc1OC
AC50 (Caspase-6): 34.5 µM (active)

CCOC(=O)C(CC)(CCC(=O)OC)c1csc(Nc2ccccc2O)n1 (stereo not given)
IC50 (Prothrombin): > 50 µM (not active)

Cc1c(C(=O)N2CCC(C(N)=O)CC2)sc(N)c1C#N
IC50 (Prothrombin): > 50 µM (not active)

O=C(COc1cc(Cl)c(Cl)cc1Cl)N1CCN(c2ccccn2)CC1
IC50 (Prothrombin): > 50 µM (not active)

CCn1cc(C(=O)N2CCc3ccccc32)c(=O)c2cc(S(=O)(=O)N3CCOCC3)ccc21
EC50 [4]: > 20 µM (not active)
EC50 [5]: > 20 µM (not active)

CCCCOc1cc(NCc2ccccc2)c2ncn(C(C)C)c2c1
AC50 [6]: > 52 µM (inactive)
IC50 [7]: 12.2 µM (active)
IC50 [3]: 12.9 µM (active)
AC50 [8]: 17.3 µM (active)
AC50 (INS1): 8.11 µM (active)
IC50 [9]: 13.4 µM (active)
AC50 [10]: 20.3 µM (active)

Cc1ccc(S(=O)(=O)Nc2ccc3c(c2)C(=O)N([C@H](C)CO)C[C@@H](C)[C@H](CN(C)C(=O)Nc2cccc4ccccc24)OCCCC[C@@H](C)O3)cc1
AC50 (Paired box protein Pax-8): 5.78 µM (active)
AC50 [11]: 42.1 µM (active)
AC50 [12]: > 70 µM (inactive)

CC(C)(C)c1ccc(/C=N/Nc2ccc(C(=O)O)cc2)cc1
IC50 (Leucine aminopeptidase): 13.3 µM (active)
IC50 [13]: > 9.49 µM (active)
IC50 (Fatty acid synthase [14]): 8.76 µM (active)
AC50 [15]: 6.03 µM (active)
IC50 (Fatty acid synthase [16]): 7.49 µM (active)

CC(=O)C[C@@H](O)CC(=O)[C@H]1OC(=O)CC/C=C\Cc2ccccc21
IC50 [1]: > 109 µM (inactive)
IC50 [2]: > 83.3 µM (inactive)

COc1ccc(-c2cn3nc4c(nc3n2)CCCC4)cc1
EC50 (HT-1080): > 50 µM (not active)
EC50 [17]: 0.46 µM (active)

O=C(COC(=O)c1cncc(Br)c1)NC1CCCCCC1
IC50 [1]: > 109 µM (inactive)
IC50 [2]: > 83.3 µM (inactive)

CC(C)CNC(=O)CCCc1ccccc1
IC50 [1]: > 109 µM (inactive)
IC50 [2]: > 83.4 µM (inactive)

COc1ccc(C#Cc2ccc3c(c2)O[C@@H](CN(C)S(=O)(=O)c2ccccc2F)[C@@H](C)CN([C@@H](C)CO)S3(=O)=O)cc1
AC50 [18]: 1.93 µM (active)
AC50 [19]: 2.65 µM (active)
AC50 [20]: 1.71 µM (active)
AC50 [21]: 1.42 µM (active)

O=C(CSc1nnc2c3c4c(sc3ncn12)CCCC4)NCc1ccco1
EC50 [4]: 14.5 µM (active)
EC50 [5]: > 20 µM (not active)
